Results from publication PMC4567993, “A Novel Trypsin Inhibitor-Like Cysteine-Rich Peptide from the Frog Lepidobatrachus laevis Containing Proteinase-Inhibiting Activity” (Natural Products and Bioprospecting, 2015).
Blank lines part the entries; values can stand above or below the substance they belong to. No end group written: not given here.

Columns and labels:
[1] = tested on: Escherichia coli (ATCC 25922); assay: Antimicrobial assay (MIC); type: cell-based; details: recombinant LL-TIL, ATCC 25922, Gram-negative, data not shown
Procedure: (§1) For antimicrobial assays, several microorganisms including Gram positive bacterium S. aureus (ATCC 25923), […] and fungus C. albicans (ATCC 20032) were obtained from Kunming Medical College. They were first grown in LB (Luria–Bertani) broth or yeast extract–peptone–dextrose broth as our previous methods. MIC (minimal inhibitory concentration) of tested sample against these microorganisms was determined as previous reports. The MIC is defined as the lowest concentration of tested sample to inhibit microorganism growth.

[2] = tested on: Staphylococcus aureus (ATCC 25923); assay: Antimicrobial assay (MIC); type: cell-based; details: recombinant LL-TIL, ATCC 25923, Gram positive, data not shown
Procedure: as §1

[3] = tested on: Bacillus subtilis (ATCC 6633); assay: Antimicrobial assay (MIC); type: cell-based; details: recombinant LL-TIL, data not shown
Procedure: as §1

[4] = tested on: Candida albicans (ATCC 20032); assay: Antimicrobial assay (MIC); type: cell-based; details: recombinant LL-TIL, ATCC 20032, fungus, data not shown
Procedure: as §1

[5] = tested on: microorganisms; assay: Antimicrobial assay, overall statement; type: cell-based; details: recombinant LL-TIL; S. aureus, E. coli, B. subtilis, C. albicans tested
Procedure: as §1

[6] = tested on: substilisin; assay: Substilisin inhibition, chromogenic substrate; type: biochemical; details: substilisin 30 nM; pH 8.45, 37 °C; LL-TIL 0.0 to 20 μM; pre-incubated 10 min; data not shown
Description: (§2) Presently, the biological role of proteinase inhibitory peptides in amphibian skins is explained mainly by two hypotheses. One is that several enzymes are involved in peptide precursor processing or peptide degradation in the skin and proteinase inhibitors negatively modulate the activity of these proteases to avoid premature degradation or release of skin peptides. The other hypothesis is that the peptides are surface anti-infective agent similar to AMPs because they inhibit extracellular proteases produced by invading bacteria. […] Further work is needed to address this issue.
(§3) Effects of the tested samples on the hydrolysis of synthetic chromogenic substrates by different serine proteases were assayed in 0.05 M Tris–HCl, pH 7.8 (for trypsin, Sigma T4665; thrombin, Sigma T4393; chymotrypsin, Sigma C4129; elastase, Sigma E1250; plasmin, Sigma P1867) or pH 8.45 (for substilisin, Sigma P5380) buffer at 37 °C. The protease (trypsin, 10 nM; thrombin, 10 nM; chymotrypsin, 21 nM; elastase, 23 nM and substilisin, 30 nM) and different amounts of LL-TIL (final concentrations ranging from 0.0 to 20 μM) were pre-incubated for 10 min at 37 °C. […] The formation of p-nitroaniline was monitored continuously at 405 for 2 min. For chymotrypsin, the reaction was monitored at 253 nm. The inhibition constant Ki was determined according to the reported method.

[7] = tested on: plasmin; assay: Plasmin inhibition, chromogenic substrate; type: biochemical; details: 0.05 M Tris-HCl pH 7.8, 37 °C; LL-TIL 0.0 to 20 μM; pre-incubated 10 min; data not shown
Description: as §2, §3

[8] = tested on: chymotrypsin; assay: Chymotrypsin inhibition, chromogenic substrate; type: biochemical; details: chymotrypsin 21 nM; 0.05 M Tris-HCl pH 7.8, 37 °C; monitored at 253 nm; LL-TIL 0.0 to 20 μM; pre-incubated 10 min; data not shown
Description: as §2, §3

[9] = tested on: thrombin; assay: Thrombin inhibition, chromogenic substrate; type: biochemical; details: thrombin 10 nM; 0.05 M Tris-HCl pH 7.8, 37 °C; LL-TIL 0.0 to 20 μM; pre-incubated 10 min; data not shown
Description: as §2, §3

[10] = tested on: elastase; assay: Elastase inhibition, chromogenic substrate; type: biochemical; details: elastase 23 nM; 0.05 M Tris-HCl pH 7.8, 37 °C; LL-TIL 0.0 to 20 μM; pre-incubated 10 min; data not shown
Description: as §2, §3

[11] = tested on: trypsin; assay: Trypsin inhibition, chromogenic substrate (serine protease inhibitory testing); type: biochemical; details: for Reciprocal reaction velocity of trypsin, 1/V av / Reaction velocity of trypsin, V av: pH 7.8, 37 °C, means of three duplicate experiments
Procedure: as §3

[12] = tested on: chymotrypsin; parameters: method as in 2 sources, one per row (each row's own in cited_ref): ref [15] = [15]; PMID 16191451; doi:10.1016/j.peptides.2005.07.013; 15. Fogaca AC Almeida IC Eberlin MN Tanaka AS Bulet P Daffre S Peptides 2006 27 667 674 10.1016/j.peptides.2005.07.013 16191451 ||| ref [20] = [20]; PMID 23200835; doi:10.1016/j.bbrc.2012.11.056; 20. Kim BY Lee KS Wan H Zou FM Choi YS Yoon HJ Kwon HW Je YH Jin BR Biochem. Biophys. Res. Commun. 2013 430 144 149 10.1016/j.bbrc.2012.11.056 23200835; details: ref [15]; cited from earlier work
[13] = parameters: method as in PMID 16191451; details: ref [15]; cited from earlier work
[14] = tested on: elastase; parameters: method as in 3 sources, ref [14] = [14]; PMID 23533574; doi:10.1371/journal.pone.0057529; 14. Chen ZY Wang B Hu J Yang WS Cao ZJ Zhuo RX Li W Wu Y PLoS ONE 2013 8 e57529 10.1371/journal.pone.0057529 23533574 PMC3606364 ||| ref [15] = [15]; PMID 16191451; doi:10.1016/j.peptides.2005.07.013; 15. Fogaca AC Almeida IC Eberlin MN Tanaka AS Bulet P Daffre S Peptides 2006 27 667 674 10.1016/j.peptides.2005.07.013 16191451 ||| ref [20] = [20]; PMID 23200835; doi:10.1016/j.bbrc.2012.11.056; 20. Kim BY Lee KS Wan H Zou FM Choi YS Yoon HJ Kwon HW Je YH Jin BR Biochem. Biophys. Res. Commun. 2013 430 144 149 10.1016/j.bbrc.2012.11.056 23200835; details: ref [15]; cited from earlier work
[15] = target: trypsin (Sigma T4665); assay: enzyme inhibition kinetics (chromogenic substrate, Dixon plot); trypsin 10 nM pre-incubated with LL-TIL for 10 min at 37 °C in 0.05 M Tris-HCl, pH 7.8; reaction started with substrate B-3133; p-nitroaniline followed at 405 for 2 min; Ki by Dixon plot from velocities at [S] = 0.2 and 0.4 mM

Substance: IRCPKDKIYKFCGSPCPPSCKDLTPNCIAVCKKGCFCRDGTVDNNHGKCVKKENC (disulfide (positions not given here)) [LL-TIL]
antimicrobial ability against E. coli [1]: no antimicrobial abilities
antimicrobial ability against S. aureus [2]: no antimicrobial abilities
antimicrobial ability against B. subtilis [3]: no antimicrobial abilities
antimicrobial ability against C. albicans [4]: no antimicrobial abilities
antimicrobial activity (overall) [5]: no antimicrobial activity
inhibition of hydrolysis of chromogenic substrate by substilisin [6]: did not inhibit
inhibition of hydrolysis of chromogenic substrate by plasmin [7]: did not inhibit
inhibition of hydrolysis of chromogenic substrate by chymotrypsin [8]: did not inhibit
inhibition of hydrolysis of chromogenic substrate by thrombin [9]: did not inhibit
inhibition of hydrolysis of chromogenic substrate by elastase [10]: did not inhibit
inhibition of trypsin (in words) ([11]; 0.05 M Tris-HCl pH 7.8, 37 °C, trypsin 10 nM, LL-TIL 0.0 to 20 μM): inhibited the activity of trypsin
Reciprocal reaction velocity of trypsin, 1/V av ([11]; [I] = 12.987 μM, [S] = 0.2 mM, 1/V av at [I] 0: 3.7864): 5.2826
Reaction velocity of trypsin, V av ([11]; [I] = 12.987 μM, [S] = 0.2 mM, V av at [I] 0: 0.2641): 0.1893
Reciprocal reaction velocity of trypsin, 1/V av ([11]; [I] = 12.987 μM, [S] = 0.4 mM, 1/V av at [I] 0: 2.7352): 3.8700
Reaction velocity of trypsin, V av ([11]; [I] = 12.987 μM, [S] = 0.4 mM, V av at [I] 0: 0.3656): 0.2584
Reciprocal reaction velocity of trypsin, 1/V av ([11]; [I] = 25.974 μM, [S] = 0.2 mM, 1/V av at [I] 0: 3.7864): 7.3116
Reaction velocity of trypsin, V av ([11]; [I] = 25.974 μM, [S] = 0.2 mM, V av at [I] 0: 0.2641): 0.1368
Reciprocal reaction velocity of trypsin, 1/V av ([11]; [I] = 25.974 μM, [S] = 0.4 mM, 1/V av at [I] 0: 2.7352): 4.8481
Reaction velocity of trypsin, V av ([11]; [I] = 25.974 μM, [S] = 0.4 mM, V av at [I] 0: 0.3656): 0.2063
Ki ([11]; recombinant LL-TIL, trypsin 10 nM, 0.05 M Tris-HCl pH 7.8, 37 °C, pre-incubated 10 min, chromogenic substrate B-3133, p-nitroaniline at 405 for 2 min, Dixon plot, [S] 0.2 and 0.4 mM): 16.5 µM

Substance: Ixodidin: from hemocytes of the cattle tick
inhibition of chymotrypsin [12]: able to inhibit
antimicrobial activity [13]: weak antimicrobial activities
inhibition of elastase [14]: able to inhibit

Ki [15]: 16.5 µM
Substance: LL-TIL (trypsin inhibitor-like cysteine-rich peptide from Lepidobatrachus laevis), recombinant mature peptide
